# What was measured:
# [1] = test system: TxA2; details: Thrombosis Research, 35, 379-395, 1984; cited from earlier work
# [2] = test system: arachidonic acid-induced pulmonary embolism; test: Inhibiting effect on arachidonic acid-induced pulmonary embolism (in vivo); parameters: species or system ddy-male mice; details: Mus musculus; dose required to shorten the recovery time by at least 15% as compared with the control group; oral, 3 hours before arachidonic acid 125 mg/kg, mice
# Protocol: Inhibiting effect on arachidonic acid-induced pulmonary embolism (in vivo):
# A test compound in an aqueous carboxymethylcellulose solution (20 ml/kg) was orally administered to ddy-male mice fasted overnight. Three hours later, arachidonic acid (125 mg/kg) was injected to the tail vein of mice to induce pulmonary embolism, and the recovery time (minute) of locomotive activity of the mice was compared with that of a control group of mice to which a 0.25% aqueous CMC solution was administered instead of the test compound solution. The inhibiting effect of each test compound on arachidonic acid-induced pulmonary embolism was estimated in terms of the dose required to shorten the recovery time by at least 15% as compared with the control group.
SMILES,TxA2-antagonistic activity [1],ED15 [2] [mg/kg]
"O=C(O)COc1ccc(CCNS(=O)(=O)c2ccccc2)cc1 [Control, 4-(2-Benzensulfonylaminoethyl)phenoxyacetic acid]",has TxA2 -antagonistic activity,30
O=C(O)CCNC(=O)Cc1ccc2c(c1)CC(NS(=O)(=O)c1ccc(Cl)cc1)C2 (stereo not shown) [Example 1],–,0.03
O=C(O)CCCNC(=O)Cc1ccc2c(c1)CC(NS(=O)(=O)c1ccc(Cl)cc1)C2 (stereo not shown) [Example 2],–,0.03

# Source: patent US5190975A, “Indan derivatives used for treating thromboses or asthma” (Tanabe Seiyaku Co., Ltd., priority 1987, dated 1993)
